1 molecule from patent US8771733B2, “Pharmaceutical composition containing an anti-nucleating agent” (Merck Sharp & Dohme Corp., priority 2004, dated 2014) can be followed below.

A short description of data set [1]: Hygroscopicity (vapor sorption analysis). It counts as physicochemical. The method, then:
Hygroscopicity data was obtained on a VTI Symmetrical Vapor Sorption Analyzer Model SGA-1. Data was collected at room temperature from 5-95% relative humidity and back, 5% relative humidity change per step. Equilibrium conditions were 0.01 weight percent change in 5 minutes with a maximum equilibration time of 180 minutes.

The nature of data set [2]: In vitro dissolution studies with bulk drug and granules at 37° C. It counts as physicochemical. To be noted: dissolution times of 60 to 180 minutes. Here is the method:
The dissolution properties of tablets prepared in the manner described in Part A of Example 3 (i.e., tablets containing 100 mg of Compound A on a free phenol basis and 0, 5, 10 or 15 wt. % HPMC) were tested in the following manner: Two tablets containing 0, 5, 10, or 15 wt. % HPMC were added to a USP Type II dissolution vessel containing 500 mL of 0.01 N HCl (pH=2) as the dissolution medium (ambient temperature). After the tablets were allowed to sink to the bottom of the vessel, the medium was stirred at 100 rpm for 60 minutes and then at 150 rpm for up to an additional 120 minutes. Samples (5 mL) were removed from medium at 5, 10, 15, 20, 30, 60, 90 and 120 minutes and at the conclusion of the test (180 minutes). Each sample was diluted 1:1 with 50:50 (volume:volume) acetonitrile:water, and then analyzed via HPLC or W spectrophotometry to determine the concentration of Compound A in the solution. (Note: The HPLC and UV methods were determined to be equivalent; the choice of method for a particular test was based on such factors as equipment availability.)
In vitro dissolution studies similar to the study described above, but conducted with unformulated bulk Compound A K salt and formulated bulk in granules and conducted at 37° C.

The structures appear in SMILES notation. Where a name gives a salt, the structure may show the parent alone.

Take `Cc1nnc(C(=O)NC(C)(C)c2nc(C(=O)NCc3ccc(F)cc3)c(O)c(=O)n2C)o1` [Compound A K salt]: the “weight when equilibrated back down to 5% RH” value in data set [1] (5% RH, after 95% RH) is “returned back to approximately its dry weight”. Moreover, the “weight increase when equilibrated at 95% RH” value in data set [1] (95% RH at 25° C.) turned out to be 1.8%. Besides, the “XRPD analysis of the material after the hygroscopicity experiment (phase)” value in data set [1] (after 5-95% RH and back) is recorded as “had not changed phases”. The “enhancement in drug solubility in the presence of HPMC versus absence of HPMC” value in data set [2] stood at 10 fold.
